Where a name gives a salt, the structure may show the parent alone.
Tested on: E. coli clinical isolates
Assay: screen of strains in broth medium containing FAC
Type: cell-based
Parameters: key to colour: Red, Green, Black or Purple mean strong colour; Red, Green, Black or Purple mean strong colour; Red, Green, Black or Purple mean strong colour; Red, Green, Black or Purple mean strong colour; +/− means less colour than strong; Tr means a trace of colour, less than +/−; — means no colour
Conditions: for colour: 37° C. 18 hours
From the text: In order to obtain a fuller picture of the sensitivity of the substrates, they were screened with 100 different clinical isolates of E. coli in a liquid medium containing FAC. The isolates were chosen at random from the Microbiology Department, Freeman Hospital, Newcastle Upon Tyne, UK. The effectiveness of the new substrates was compared with three other media which all contained indoxyl-β-D-glucuronides. One was a commercial medium, CPS ID 3 (bioMérieux SA, Lyon, France). […] This medium was employed as a control. Among the β-D-glucuronidase producing strains of E. coli there is a large variation in the quantity of the enzyme produced and it is almost certain that the CPS ID 3 medium has been rigorously optimised to allow good growth of all the target organisms and maximum expression of the target enzymes. Therefore, two indoxyl glucuronides, X-β-D-glucuronide CHA salt and Rose-β-D-glucuronide CHA salt were also tested in a simple agar medium to allow a direct comparison of the sensitivity of these Indoxyl glucuronides when used in a medium that has not been optimised for the growth of the target organism. The comparison of the results for Rose-β-D-glucuronide and the CPS ID 3 medium was of particular significance as the commercial medium also uses Rose-β-D-glucuronide for the detection of E. coli. For consistency, the four glucuronides were all chosen as their CHA salts. As already stated, it is not anticipated that the salt form is critical to their performance. Currently. X-β-D-glucuronide is often used as either the CHA salt or the sodium salt. Brenner and colleagues [K. P. Brenner et al, Appl. Environ. Microbiol., 59, 3534-3544, (1993)] found no difference in the performance of the CHA and sodium salt forms with their application using indoxyl-β-D-glucuronide, neither in respect of colour development nor in the recovery of E. coli.
The two indoxyl glucuronides used produce insoluble endpoints following hydrolysis, as does the CPS ID 3 medium. It was therefore necessary to test these two substrates on agar plates. In contrast, catechol-β-D-glucuronide (1) and DHN-β-D-glucuronide (2b) give much more soluble endpoints best suited to liquid media and were therefore tested in a broth medium. Each broth was prepared using proteose peptone (Oxoid, Basingstoke, UK) (2 g), NaCl (1 g) and FAC (100 mg) in DI water (180 mL). This mixture was autoclaved and cooled to room temperature before being dispensed into bijoux (100×1.8 mL). Catechol β-D-glucuronide CHA salt (1) or DHN-β-D-glucuronide CHA salt (2b) (60 mg) were each dissolved in water (20 mL) and filtered to sterilize before being aseptically dispensed into successive bijoux (0.2 mL) containing the broth solution. The broth/substrate solutions were then inoculated with bacterial suspensions made up to 0.5 McFarland standard (2 μL per bijoux). X-β-D-glucuronide CHA salt (Glycosynth Ltd, Warrington, UK) (10 mg) was dissolved in NMP (200 μL). Rose-β-D-glucuronide CHA salt (Glycosynth Ltd, Warrington, UK) (20 mg) was dissolved in NMP (200 μL). These solutions were then added to Columbia agar (Oxoid, Basingstoke, UK) (100 mL) and inoculated with bacterial suspensions made up to 0.5 McFarland standard (1 μL). The plates and broths were incubated at 37° C. for 18 hours in air.

[1] = 100 E. coli strains after 18 h incubation, broth

Question: Which “% Sensitivity” value [1] does the source give for `O=C(O)C1OC(Oc2cc3ccccc3cc2O)C(O)C(O)C1O` [Compound 2b, DHN-β-D-Glucuronide CHA Salt] here?
Answer: Its value is 82%.

Question: And the Negative strains [1]?
Answer: The Negative strains was 18.

Question: And the Positive strains [1]?
Answer: The Positive strains was 82.

Question: What about the colour (E. coli 260262P, broth) of the same molecule?
Answer: Its colour is “Purple”.

Question: What about the colour (E. coli 260280Z, broth) of the same molecule?
Answer: The colour was “Purple”.

Question: And the colour (E. coli 260310H, broth)?
Answer: Its colour is “Purple”.

Question: And the colour (E. coli 260313A, broth)?
Answer: Its colour is “—”.

Question: And the colour (E. coli 260316T, broth)?
Answer: Its colour is “—”.

Question: What about the colour (E. coli 260327V, broth) of the same molecule?
Answer: The colour was “Purple”.

Question: What about the colour (E. coli 260330Y, broth) of the same molecule?
Answer: The colour was “Purple”.

Question: And the colour (E. coli 260333P, broth)?
Answer: The colour was “—”.

Question: And the colour (E. coli 260345F, broth)?
Answer: The colour was “Purple”.

Question: And the colour (E. coli 260348K, broth)?
Answer: The colour was “Purple”.

Question: And the colour (E. coli 260354W, broth)?
Answer: Its colour is “Purple”.

Question: And the colour (E. coli 260364H, broth)?
Answer: Its colour is “—”.

Question: And the colour (E. coli 260370C, broth)?
Answer: Its colour is “Purple”.

Question: And the colour (E. coli 260375E, broth)?
Answer: The colour was “Purple”.

Question: And the colour (E. coli 260390B, broth)?
Answer: Its colour is “—”.

Question: What about the colour (E. coli 260396Z, broth) of the same molecule?
Answer: Its colour is “Purple”.

Question: What about the colour (E. coli 260398Q, broth) of the same molecule?
Answer: The colour was “Purple”.

Question: And the colour (E. coli 260400N, broth)?
Answer: Its colour is “—”.

Question: What about the colour (E. coli 260401Q, broth) of the same molecule?
Answer: The colour was “Purple”.

Question: And the colour (E. coli 260402H, broth)?
Answer: Its colour is “Purple”.

Question: And the colour (E. coli 260404W, broth)?
Answer: The colour was “Purple”.

Question: And the colour (E. coli 260405P, broth)?
Answer: Its colour is “Purple”.

Question: What about the colour (E. coli 260406A, broth) of the same molecule?
Answer: Its colour is “—”.

Question: And the colour (E. coli 260406Y, broth)?
Answer: Its colour is “Purple”.

Question: What about the colour (E. coli 260407F, broth) of the same molecule?
Answer: Its colour is “Purple”.

Question: And the colour (E. coli 260408C, broth)?
Answer: The colour was “Purple”.

Question: What about the colour (E. coli 260411Z, broth) of the same molecule?
Answer: The colour was “Purple”.

Question: What about the colour (E. coli 260412Q, broth) of the same molecule?
Answer: The colour was “Purple”.

Question: And the colour (E. coli 260414H, broth)?
Answer: The colour was “Purple”.

Question: What about the colour (E. coli 260415Y, broth) of the same molecule?
Answer: Its colour is “Purple”.

Question: What about the colour (E. coli 260416W, broth) of the same molecule?
Answer: The colour was “Purple”.

Question: What about the colour (E. coli 260417P, broth) of the same molecule?
Answer: Its colour is “Purple”.

Question: And the colour (E. coli 260422Y, broth)?
Answer: Its colour is “Purple”.

Question: And the colour (E. coli 260424P, broth)?
Answer: The colour was “Purple”.

Question: And the colour (E. coli 260425A, broth)?
Answer: Its colour is “Purple”.

Question: What about the colour (E. coli 260426F, broth) of the same molecule?
Answer: Its colour is “Purple”.

Question: What about the colour (E. coli 260428T, broth) of the same molecule?
Answer: Its colour is “Purple”.

Question: And the colour (E. coli 260431N, broth)?
Answer: Its colour is “Purple”.

Question: And the colour (E. coli 260432E, broth)?
Answer: Its colour is “Purple”.

Question: And the colour (E. coli 260433H, broth)?
Answer: Its colour is “Purple”.

Question: And the colour (E. coli 260434Y, broth)?
Answer: The colour was “Purple”.

Question: What about the colour (E. coli 260435W, broth) of the same molecule?
Answer: The colour was “Purple”.

Question: What about the colour (E. coli 260436P, broth) of the same molecule?
Answer: The colour was “Purple”.

Question: What about the colour (E. coli 260437A, broth) of the same molecule?
Answer: Its colour is “—”.

Question: What about the colour (E. coli 260438F, broth) of the same molecule?
Answer: Its colour is “Purple”.

Question: And the colour (E. coli 260439C, broth)?
Answer: The colour was “Purple”.

Question: What about the colour (E. coli 260440S, broth) of the same molecule?
Answer: Its colour is “Purple”.

Question: And the colour (E. coli 260441G, broth)?
Answer: Its colour is “Purple”.

Question: And the colour (E. coli 260458Y, broth)?
Answer: Its colour is “Purple”.

Question: And the colour (E. coli 260459W, broth)?
Answer: Its colour is “Purple”.

Question: And the colour (E. coli 260463D, broth)?
Answer: The colour was “Purple”.

Question: What about the colour (E. coli 260464G, broth) of the same molecule?
Answer: Its colour is “Purple”.

Question: And the colour (E. coli 260471B, broth)?
Answer: The colour was “—”.

Question: What about the colour (E. coli 260478N, broth) of the same molecule?
Answer: Its colour is “—”.

Question: And the colour (E. coli 260479Q, broth)?
Answer: Its colour is “Purple”.

Question: And the colour (E. coli 260480M, broth)?
Answer: Its colour is “Purple”.

Question: And the colour (E. coli 260481J, broth)?
Answer: The colour was “Purple”.

Question: And the colour (E. coli 260483R, broth)?
Answer: The colour was “—”.

Question: What about the colour (E. coli 260485D, broth) of the same molecule?
Answer: The colour was “Purple”.

Question: And the colour (E. coli 260486L, broth)?
Answer: The colour was “Purple”.

Question: What about the colour (E. coli 260492J, broth) of the same molecule?
Answer: The colour was “Purple”.

Question: And the colour (E. coli 260494B, broth)?
Answer: The colour was “Purple”.

Question: What about the colour (E. coli 260495R, broth) of the same molecule?
Answer: Its colour is “Purple”.

Question: And the colour (E. coli 260497D, broth)?
Answer: Its colour is “Purple”.

Question: And the colour (E. coli 260502G, broth)?
Answer: The colour was “Purple”.

Question: And the colour (E. coli 260503Z, broth)?
Answer: The colour was “Purple”.

Question: What about the colour (E. coli 260504N, broth) of the same molecule?
Answer: Its colour is “Purple”.

Question: What about the colour (E. coli 260505Q, broth) of the same molecule?
Answer: The colour was “—”.

Question: And the colour (E. coli 260506E, broth)?
Answer: The colour was “Purple”.

Question: And the colour (E. coli 260508Y, broth)?
Answer: The colour was “Purple”.

Question: What about the colour (E. coli 260509W, broth) of the same molecule?
Answer: The colour was “Purple”.

Question: What about the colour (E. coli 260510R, broth) of the same molecule?
Answer: The colour was “Purple”.

Question: What about the colour (E. coli 260511X, broth) of the same molecule?
Answer: Its colour is “Purple”.

Question: What about the colour (E. coli 260514G, broth) of the same molecule?
Answer: The colour was “—”.

Question: And the colour (E. coli 260515Z, broth)?
Answer: The colour was “Purple”.

Question: And the colour (E. coli 260521S, broth)?
Answer: Its colour is “Purple”.

Question: What about the colour (E. coli 260522Z, broth) of the same molecule?
Answer: Its colour is “Purple”.

Question: What about the colour (E. coli 260532S, broth) of the same molecule?
Answer: The colour was “Purple”.

Question: What about the colour (E. coli 260533G, broth) of the same molecule?
Answer: The colour was “Purple”.

Question: What about the colour (E. coli 260536Q, broth) of the same molecule?
Answer: Its colour is “Purple”.

Question: What about the colour (E. coli 260537E, broth) of the same molecule?
Answer: Its colour is “—”.

Question: And the colour (E. coli 260538H, broth)?
Answer: The colour was “—”.

Question: What about the colour (E. coli 260539Y, broth) of the same molecule?
Answer: The colour was “Purple”.

Question: And the colour (E. coli 260541R, broth)?
Answer: Its colour is “Purple”.

Question: And the colour (E. coli 260545G, broth)?
Answer: The colour was “Purple”.

Question: And the colour (E. coli 260547N, broth)?
Answer: The colour was “Purple”.

Question: And the colour (E. coli 260548Q, broth)?
Answer: The colour was “Purple”.

Question: And the colour (E. coli 260549E, broth)?
Answer: Its colour is “Purple”.

Question: And the colour (E. coli 260553X, broth)?
Answer: The colour was “—”.

Question: What about the colour (E. coli 260554D, broth) of the same molecule?
Answer: Its colour is “Purple”.

Question: And the colour (E. coli 260555L, broth)?
Answer: Its colour is “Purple”.

Question: What about the colour (E. coli 260563B, broth) of the same molecule?
Answer: The colour was “Purple”.

Question: What about the colour (E. coli 260564R, broth) of the same molecule?
Answer: The colour was “Purple”.

Question: What about the colour (E. coli 260578D, broth) of the same molecule?
Answer: The colour was “—”.

Question: What about the colour (E. coli 2603121P, broth) of the same molecule?
Answer: The colour was “—”.

Question: And the colour (E. coli 2604399E, broth)?
Answer: Its colour is “Purple”.

Question: What about the colour (E. coli O157 non-toxigenic, broth) of the same molecule?
Answer: The colour was “—”.

Question: And the “colour of positive solutions” value (broth with FAC, in words)?
Answer: Its value is “purple solutions”.

Source: US9879303B2, “Chromogenic glucuronidase substrates and uses” (Glycosynth Limited, priority 2013, dated 2018)
